Data as given in publication PMC5428354, “Screening of a natural compound library identifies emodin, a natural compound from Rheum palmatum Linn that inhibits DPP4” (PeerJ, 2017).
Read-outs that look alike come from different tables or passages of the source.

Target: DPP4 (Homo sapiens, UniProt P27487)
Experiment: DPP4 activity assay (DPP4 inhibitor screening assay kit, Cayman);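 note: fluorescence read at excitation 360 nm and emission 460 nm after the enzyme reaction ran 30 min at 37 °C in a 96-well plate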
Format: biochemical
Design: purchased Cayman Chemical, Ann Arbor, MI, USA
Conditions: for remaining activity at 10 µM: 0.5 h
[1] = 10 µM, control mean 100.0, Figure 1A raw data, read-out: DPP4 activity in library screen, Exp 1
[2] = 10 µM, control mean 100.0, Figure 1A raw data, read-out: DPP4 activity in library screen, Exp 2
[3] = 10 µM, control mean 100.0, Figure 1A raw data, read-out: DPP4 activity in library screen, Exp 3
[4] = 10 µM, control mean 100.0, mean of Exp 1-3, read-out: DPP4 activity in library screen, Mean
[5] = 10 µM, control mean 100.0, Figure 1A raw data
[6] = 10 µM, control mean 100.0, mean of Exp 1-3

DPP4, sequence (P27487 whole entry): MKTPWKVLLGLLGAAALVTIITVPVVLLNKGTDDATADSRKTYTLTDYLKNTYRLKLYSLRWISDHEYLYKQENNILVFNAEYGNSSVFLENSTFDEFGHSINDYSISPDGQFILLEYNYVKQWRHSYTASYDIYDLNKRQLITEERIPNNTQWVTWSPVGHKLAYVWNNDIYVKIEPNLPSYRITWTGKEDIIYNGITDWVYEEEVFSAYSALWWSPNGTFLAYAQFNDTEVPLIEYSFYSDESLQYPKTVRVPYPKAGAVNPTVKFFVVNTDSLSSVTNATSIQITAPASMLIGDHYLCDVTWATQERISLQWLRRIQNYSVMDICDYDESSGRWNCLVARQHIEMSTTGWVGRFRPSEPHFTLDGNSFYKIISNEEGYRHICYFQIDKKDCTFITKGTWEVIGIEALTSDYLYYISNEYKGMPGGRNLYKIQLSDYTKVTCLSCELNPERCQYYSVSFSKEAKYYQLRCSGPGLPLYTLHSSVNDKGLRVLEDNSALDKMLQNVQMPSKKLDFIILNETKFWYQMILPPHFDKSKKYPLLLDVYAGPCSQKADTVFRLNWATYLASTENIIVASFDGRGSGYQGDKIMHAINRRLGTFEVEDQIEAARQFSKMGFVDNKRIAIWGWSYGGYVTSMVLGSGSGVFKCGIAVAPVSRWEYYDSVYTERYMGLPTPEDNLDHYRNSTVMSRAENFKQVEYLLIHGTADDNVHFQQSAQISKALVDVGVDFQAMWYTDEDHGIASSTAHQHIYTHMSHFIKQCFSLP

remaining activity at 10 µM [1] [%] | remaining activity at 10 µM [2] [%] | remaining activity at 10 µM [3] [%] | remaining activity at 10 µM [4] [%] | Structure (SMILES) | further results
 |  |  |  | O=c1cccc2n1C[C@@H]1CNC[C@H]2C1 [Cytisine] | remaining activity at 10 µM (read-out: DPP4 activity in library screen, Exp 1): 90.3%; remaining activity at 10 µM (read-out: DPP4 activity in library screen, Exp 2): 91%; remaining activity at 10 µM (read-out: DPP4 activity in library screen, Exp 3): 109%; remaining activity at 10 µM (read-out: DPP4 activity in library screen, Mean): 96.7%
 |  |  |  | C=C1C[C@@]2(O)O[C@@]3(C[C@H]2C(C)C)[C@@H](C)CC[C@@H]13 [Curcumol] | DPP4 activity in library screen, Exp 1 [5]: 100.6; DPP4 activity in library screen, Exp 2 [5]: 99.6; DPP4 activity in library screen, Exp 3 [5]: 110.6; DPP4 activity in library screen, Mean [6]: 103.6
97.4 | 70.3 | 67.8 | 78.5 | O=c1cc(-c2ccc(O)cc2)oc2cc(O)cc(O)c12 [Apigenin] | 
65.1 | 76.8 | 67.3 | 69.7 | COc1cc(C2Oc3cc([C@H]4Oc5cc(O)cc(O)c5C(=O)[C@@H]4O)ccc3OC2CO)ccc1O (some centres unmarked) [Silibinin] | 
 |  |  |  | COC12c3c(C)cc(O)c4c(=O)occ(c34)C(=O)C1C13COC(=O)c4c(O)cc(C)c(c41)C(=O)C2C3OC(C)=O (centres unmarked) [duclauxin] | DPP4 activity in library screen, Exp 1 [5]: 98.3; DPP4 activity in library screen, Exp 2 [5]: 99.5; DPP4 activity in library screen, Exp 3 [5]: 163.1; DPP4 activity in library screen, Mean [6]: 120.3
103 | 99.8 | 104 | 102 | COc1cc2c(cc1OC)[C@@H]1Cc3ccc(OC)c(OC)c3CN1CC2 [Rotundine] | 
117 | 101 | 93.4 | 104 | C/C=C1/[C@H](O[C@@H]2O[C@H](CO)[C@@H](O)[C@H](O)[C@H]2O)OC=C(C(=O)OC)[C@H]1CC(=O)OCCc1ccc(O)c(O)c1 [Oleuropein] | 
76 | 74.5 | 78.7 | 76.4 | COc1ccc(-c2oc3c(CC=C(C)C)c(O[C@@H]4O[C@H](CO)[C@@H](O)[C@H](O)[C@H]4O)cc(O)c3c(=O)c2O[C@@H]2O[C@@H](C)[C@H](O)[C@@H](O)[C@H]2O)cc1 [Icariin] | 
81 | 85.4 | 96.9 | 87.8 | C=C1C(=O)[C@]23[C@H](O)[C@H]1CC[C@H]2[C@@]12CO[C@]3(O)[C@@H](O)[C@@H]1C(C)(C)CC[C@@H]2O [Oridonin] | 
80.4 | 87.5 | 94.1 | 87.3 | O=C1C[C@@H](c2ccc(O)cc2)Oc2cc(O)cc(O)c21 [Naringenin] | 
 |  |  |  | CC1(C)[C@@H](O[C@H]2O[C@H](C(=O)O)[C@@H](O)[C@H](O)[C@H]2O[C@@H]2O[C@H](C(=O)O)[C@@H](O)[C@H](O)[C@H]2O)CC[C@]2(C)[C@H]3C(=O)C=C4[C@@H]5C[C@@](C)(C(=O)O)CC[C@]5(C)CC[C@@]4(C)[C@]3(C)CC[C@@H]12 [Ammonium Glycyrrhizinate] | DPP4 activity in library screen, Exp 1 [5]: 83.3; DPP4 activity in library screen, Exp 2 [5]: 106.3; DPP4 activity in library screen, Exp 3 [5]: 81.6; DPP4 activity in library screen, Mean [6]: 90.4
 |  |  |  | COc1ccc([C@@H]2CC(=O)c3c(O)cc(O[C@@H]4O[C@H](CO[C@@H]5O[C@@H](C)[C@H](O)[C@@H](O)[C@H]5O)[C@@H](O)[C@H](O)[C@H]4O)cc3O2)cc1O [Hesperidin] | DPP4 activity in library screen, Exp 1 [5]: 97.2; DPP4 activity in library screen, Exp 2 [5]: 95.1; DPP4 activity in library screen, Exp 3 [5]: 85.1; DPP4 activity in library screen, Mean [6]: 92.5
80.9 | 99.9 | 71.4 | 84.1 | C=C[C@](C)(O)CC[C@@H]1[C@@]2(C)CCCC(C)(C)[C@@H]2CC[C@@]1(C)O [Sclareol] | 
 |  |  |  | COc1ccc([C@@H]2CC(=O)c3c(O)cc(O[C@@H]4O[C@H](CO)[C@@H](O)[C@H](O)[C@H]4O[C@@H]4O[C@@H](C)[C@H](O)[C@@H](O)[C@H]4O)cc3O2)cc1O [Neohesperidin] | DPP4 activity in library screen, Exp 1 [5]: 93.8; DPP4 activity in library screen, Exp 2 [5]: 90.3; DPP4 activity in library screen, Exp 3 [5]: 71.8; DPP4 activity in library screen, Mean [6]: 85.3
95.9 | 96.2 | 96.1 | 96.1 | OC[C@H]1O[C@@H](Oc2ccc(O)cc2)[C@H](O)[C@@H](O)[C@@H]1O [Arbutin] | 
 |  |  |  | COc1ccc(-c2coc3cc(O)cc(O)c3c2=O)cc1 [Biochanin A] | DPP4 activity in library screen, Exp 1 [5]: 94.6; DPP4 activity in library screen, Exp 2 [5]: 100.9; DPP4 activity in library screen, Exp 3 [5]: 85.2; DPP4 activity in library screen, Mean [6]: 93.6
63.2 | 86.5 | 114 | 87.8 | O=C(CCc1ccc(O)cc1)c1c(O)cc(O)cc1O[C@@H]1O[C@H](CO)[C@@H](O)[C@H](O)[C@H]1O [Phlorizin] | 
90.3 | 78 | 91.2 | 86.5 | COc1ccc(CCC(=O)c2c(O)cc(O[C@@H]3O[C@H](CO)[C@@H](O)[C@H](O)[C@H]3O[C@@H]3O[C@@H](C)[C@H](O)[C@@H](O)[C@H]3O)cc2O)cc1O [Neohesperidin dihydrochalcone (Nhdc), Neohesperidin dihydrochalcone] | 
 |  |  |  | CC1(C)CCC[C@]2(C)[C@H]3CC(=O)O[C@]3(C)CC[C@@H]12 [Sclareolide] | DPP4 activity in library screen, Exp 1 [5]: 95.1; DPP4 activity in library screen, Exp 2 [5]: 80.7; DPP4 activity in library screen, Exp 3 [5]: 80.2; DPP4 activity in library screen, Mean [6]: 85.3
92 | 93.9 | 107 | 97.5 | O=C(O)CCCc1c[nH]c2ccccc12 [3-Indolebutyric acid (IBA), 3-Indolebutyric acid] | 
94.5 | 102 | 126 | 107 | COc1cc(O)c(CC=C(C)C)c(O)c1C(=O)/C=C/c1ccc(O)cc1 [Xanthohumol] | 
95.6 | 94.7 | 93.5 | 94.6 | CCn1cc(C(=O)O)c(=O)c2ccc(C)nc21 [Nalidixic acid] | 
 |  |  |  | C[C@@H]1O[C@@H](O[C@H]2[C@H](Oc3cc(O)c(C(=O)CCc4ccc(O)cc4)c(O)c3)O[C@H](CO)[C@@H](O)[C@@H]2O)[C@H](O)[C@H](O)[C@H]1O [Naringin Dihydrochalcone] | DPP4 activity in library screen, Exp 1 [5]: 84.3; DPP4 activity in library screen, Exp 2 [5]: 82.4; DPP4 activity in library screen, Exp 3 [5]: 91.6; DPP4 activity in library screen, Mean [6]: 86.1
97.1 | 91 | 88.2 | 92.1 | C[C@H]1[C@@H](O)O[C@@H]2O[C@@]3(C)CC[C@H]4[C@H](C)CC[C@@H]1[C@@]24OO3 [Dihydroartemisinin (DHA), Dihydroartemisinin] | 
96.6 | 94.7 | 96.2 | 95.8 | C[C@H](CCC(=O)O)[C@H]1CC[C@H]2[C@@H]3C[C@H](O)[C@@H]4C[C@H](O)CC[C@]4(C)[C@H]3CC[C@]12C [Hyodeoxycholic acid (HDCA), Hyodeoxycholic acid] | 
93.8 | 83.2 | 67.9 | 81.6 | O=C1c2c(O)cc(O)cc2OC(c2ccc(O)c(O)c2)C1O (centres unmarked) [Taxifolin (Dihydroquercetin), Taxifolin] | 

Structure (SMILES) | remaining activity at 10 µM [1] [%] | remaining activity at 10 µM [2] [%] | remaining activity at 10 µM [3] [%] | remaining activity at 10 µM [4] [%] | further results
CN(C)Cc1c[nH]c2ccccc12 [Gramine] | 97.6 | 97.4 | 88.2 | 94.4 | 
CC1(C)[C@@H](O[C@H]2O[C@H](C(=O)O)[C@@H](O)[C@H](O)[C@H]2O[C@@H]2O[C@H](C(=O)O)[C@@H](O)[C@H](O)[C@H]2O)CC[C@]2(C)[C@H]3C(=O)C=C4[C@@H]5C[C@@](C)(C(=O)O)CC[C@]5(C)CC[C@@]4(C)[C@]3(C)CC[C@@H]12 [Glycyrrhizin (Glycyrrhizic Acid), Glycyrrhizin] | 137 | 78.9 | 65.2 | 93.8 | 
N#C[C@H](O[C@@H]1O[C@H](CO[C@@H]2O[C@H](CO)[C@@H](O)[C@H](O)[C@H]2O)[C@@H](O)[C@H](O)[C@H]1O)c1ccccc1 [Amygdalin] | 96.2 | 94.7 | 92.1 | 94.3 | 
CC[C@@]1(O)C(=O)OCc2c1cc1n(c2=O)Cc2cc3cc(O)ccc3nc2-1 [(S)-10-Hydroxycamptothecin] | 87.4 | 77.6 | 85.7 | 83.6 | 
OCc1ccc(O[C@@H]2O[C@H](CO)[C@@H](O)[C@H](O)[C@H]2O)cc1 [Gastrodin] | 91 | 91.5 | 98.6 | 93.7 | 
C[C@H]1C(=O)O[C@@H]2CCN3CC=C(COC(=O)[C@](C)(O)[C@]1(C)O)[C@H]23 [Monocrotaline] | 70.9 | 95.8 | 85.1 | 83.9 | 
